Row | Compound | melting point [°C]
1 | O=C(CCC(=O)OCCCC(F)(F)F)Nc1ccc(Br)cn1 | 118 to 119
2 | CC1(CCOC(=O)CCC(=O)Nc2ccc(Br)cn2)OCCO1 [Compound A43, 2-(2-methyl-1,3-dioxolan-2-yl)ethyl 4-[(5-bromo-2-pyridyl)amino]-4-oxo-butanoate] | 97 to 98

Reference: patent US20140371070A1, “PLANT GROWTH REGULATING COMPOUNDS” (Syngenta Participations AG, priority 2011, published 2014)
